Source: PubChem BioAssay (NCI)
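Exposure lasted 48 hours, with cells grown in 96-well plates and compounds tested at five concentrations. GI50 marks 50% less growth. TGI denotes the concentration required for complete inhibition of growth.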

Key:
Experiment in all cases: NCI-60 cell line screen, 48 h; in the data active = GI50 below about 0.43 µM; inactive = the rest
HL-60(TB) leukemia = system: HL-60(TB) leukemia
ACHN renal = system: ACHN renal
NCI-H460 lung = system: NCI-H460 lung
NCI-H23 lung = system: NCI-H23 lung
BT-549 breast = system: BT-549 breast
KM12 colon = system: KM12 colon
SNB-19 CNS = system: SNB-19 CNS
CCRF-CEM leukemia = system: CCRF-CEM leukemia
PC-3 prostate = system: PC-3 prostate
K-562 leukemia = system: K-562 leukemia
U251 CNS = system: U251 CNS
HT29 colon = system: HT29 colon
SK-OV-3 ovarian = system: SK-OV-3 ovarian
OVCAR-4 ovarian = system: OVCAR-4 ovarian
OVCAR-3 ovarian = system: OVCAR-3 ovarian
NCI-H226 lung = system: NCI-H226 lung
HOP-92 NSCLC = system: HOP-92 NSCLC
MDA-MB-435 = system: MDA-MB-435
SF-295 CNS = system: SF-295 CNS
UACC-62 melanoma = system: UACC-62 melanoma
CAKI-1 renal = system: CAKI-1 renal
OVCAR-5 ovarian = system: OVCAR-5 ovarian
SF-268 CNS = system: SF-268 CNS
LOX IMVI melanoma = system: LOX IMVI melanoma
COLO 205 colon = system: COLO 205 colon
RXF 393 renal = system: RXF 393 renal
SK-MEL-28 melanoma = system: SK-MEL-28 melanoma
TK-10 renal = system: TK-10 renal
NCI-H522 lung = system: NCI-H522 lung
IGROV1 ovarian = system: IGROV1 ovarian
SF-539 CNS = system: SF-539 CNS
OVCAR-8 ovarian = system: OVCAR-8 ovarian
HCC-2998 colon = system: HCC-2998 colon
A549 NSCLC = system: A549 NSCLC
T-47D breast = system: T-47D breast
UACC-257 melanoma = system: UACC-257 melanoma
SNB-75 CNS = system: SNB-75 CNS
EKVX NSCLC = system: EKVX NSCLC
HCT-116 colon = system: HCT-116 colon
786-0 renal = system: 786-0 renal
MALME-3M melanoma = system: MALME-3M melanoma
MOLT-4 leukemia = system: MOLT-4 leukemia
DU-145 prostate = system: DU-145 prostate
SW-620 colon = system: SW-620 colon
UO-31 renal = system: UO-31 renal
SN12C renal = system: SN12C renal
MCF7 breast = system: MCF7 breast
HS 578T breast = system: HS 578T breast
M14 melanoma = system: M14 melanoma
HCT-15 colon = system: HCT-15 colon
SR leukemia = system: SR leukemia
SK-MEL-2 melanoma = system: SK-MEL-2 melanoma
A498 renal = system: A498 renal
HOP-62 NSCLC = system: HOP-62 NSCLC

COc1ccccc1N1CCN(C2=NN=C(c3cccc(Cl)c3)c3ccccc3C2)CC1
> 22200 nM: TGI (HOP-92 NSCLC)
> 65800 nM: TGI (HOP-62 NSCLC)
2780 nM: TGI (A498 renal)
2760 nM: TGI (RXF 393 renal)
inactive: GI50 (ACHN renal) 554 nM | GI50 (NCI-H23 lung) 571 nM | GI50 (PC-3 prostate) 443 nM | GI50 (SK-OV-3 ovarian) 637 nM | GI50 (OVCAR-4 ovarian) 1190 nM | GI50 (NCI-H226 lung) 1160 nM | GI50 (HOP-92 NSCLC) 1000 nM | GI50 (UACC-62 melanoma) 509 nM | GI50 (OVCAR-5 ovarian) 498 nM | GI50 (SF-268 CNS) 566 nM | GI50 (SK-MEL-28 melanoma) 2470 nM | GI50 (TK-10 renal) 2320 nM | GI50 (IGROV1 ovarian) 474 nM | GI50 (OVCAR-8 ovarian) 438 nM | GI50 (T-47D breast) 1130 nM | GI50 (UACC-257 melanoma) 2370 nM | GI50 (SNB-75 CNS) 491 nM | GI50 (EKVX NSCLC) 556 nM | GI50 (786-0 renal) 542 nM | GI50 (MALME-3M melanoma) 630 nM | GI50 (SW-620 colon) 439 nM | GI50 (UO-31 renal) 708 nM | GI50 (SN12C renal) 474 nM | GI50 (SK-MEL-2 melanoma) 743 nM | GI50 (HOP-62 NSCLC) 508 nM
97400 nM: TGI (SK-OV-3 ovarian)
20300 nM: TGI (SNB-75 CNS)
> 38000 nM: TGI (MCF7 breast)
1940 nM: TGI (NCI-H460 lung)
> 30500 nM: TGI (BT-549 breast)
920 nM: TGI (HL-60(TB) leukemia)
793 nM: TGI (OVCAR-3 ovarian)
847 nM: TGI (SF-539 CNS)
> 37200 nM: TGI (OVCAR-5 ovarian)
> 43200 nM: TGI (TK-10 renal)
3440 nM: TGI (SF-295 CNS)
> 45400 nM: TGI (SK-MEL-2 melanoma)
13500 nM: TGI (CAKI-1 renal)
13200 nM: TGI (786-0 renal)
1650 nM: TGI (COLO 205 colon)
> 34200 nM: TGI (HCT-15 colon)
> 33900 nM: TGI (PC-3 prostate)
active: GI50 (HL-60(TB) leukemia) 285 nM | GI50 (NCI-H460 lung) 351 nM | GI50 (BT-549 breast) 373 nM | GI50 (KM12 colon) 380 nM | GI50 (SNB-19 CNS) 420 nM | GI50 (CCRF-CEM leukemia) 333 nM | GI50 (K-562 leukemia) 336 nM | GI50 (U251 CNS) 383 nM | GI50 (HT29 colon) 337 nM | GI50 (OVCAR-3 ovarian) 282 nM | GI50 (MDA-MB-435) 206 nM | GI50 (SF-295 CNS) 334 nM | GI50 (CAKI-1 renal) 410 nM | GI50 (LOX IMVI melanoma) 418 nM | GI50 (COLO 205 colon) 337 nM | GI50 (RXF 393 renal) 270 nM | GI50 (NCI-H522 lung) 270 nM | GI50 (SF-539 CNS) 277 nM | GI50 (HCC-2998 colon) 324 nM | GI50 (A549 NSCLC) 425 nM | GI50 (HCT-116 colon) 337 nM | GI50 (MOLT-4 leukemia) 356 nM | GI50 (DU-145 prostate) 367 nM | GI50 (MCF7 breast) 351 nM | GI50 (HS 578T breast) 332 nM | GI50 (M14 melanoma) 316 nM | GI50 (HCT-15 colon) 343 nM | GI50 (SR leukemia) 260 nM | GI50 (A498 renal) 350 nM
497 nM: TGI (MDA-MB-435)
> 36600 nM: TGI (HCT-116 colon)
2370 nM: TGI (DU-145 prostate)
> 36300 nM: TGI (NCI-H226 lung)
2270 nM: TGI (HCC-2998 colon)
> 100000 nM: TGI (ACHN renal) | TGI (NCI-H23 lung) | TGI (KM12 colon) | TGI (SNB-19 CNS) | TGI (CCRF-CEM leukemia) | TGI (K-562 leukemia) | TGI (U251 CNS) | TGI (OVCAR-4 ovarian) | TGI (UACC-62 melanoma) | TGI (SF-268 CNS) | TGI (LOX IMVI melanoma) | TGI (SK-MEL-28 melanoma) | TGI (IGROV1 ovarian) | TGI (OVCAR-8 ovarian) | TGI (A549 NSCLC) | TGI (T-47D breast) | TGI (UACC-257 melanoma) | TGI (EKVX NSCLC) | TGI (MALME-3M melanoma) | TGI (MOLT-4 leukemia) | TGI (SW-620 colon) | TGI (UO-31 renal) | TGI (SN12C renal) | TGI (SR leukemia)
